Where a SMILES comes first, the peptide text is derived from it. [ ]: non-standard residue; d: D form.
Legend:
MTNR1A = experiment: GPCR panel (control), Arrestin, CHO-K1; format: cell-based, human; conditions: reference agonist
MTNR1B = experiment: GPCR panel (control), Arrestin, CHO-K1; format: cell-based, human; conditions: reference agonist
CRTH2 = CRTH2 (Homo sapiens, UniProt Q9Y5Y4); experiment: GPCR panel (control), Arrestin, U2OS; format: cell-based; conditions: reference agonist
CXCR3 = experiment: GPCR panel (control), Arrestin, CHO-K1; format: cell-based, human; conditions: reference agonist
P2RY2 = experiment: GPCR panel (control), Arrestin, U2OS; format: cell-based, human; conditions: reference agonist
P2RY4 = experiment: GPCR panel (control), Arrestin, CHO-K1; format: cell-based, human; conditions: reference agonist
P2RY6 = experiment: GPCR panel (control), Arrestin, CHO-K1; format: cell-based, human; conditions: reference agonist
PTAFR = experiment: GPCR panel (control), Arrestin, CHO-K1; format: cell-based, human; conditions: reference agonist
OPRD1 = target: T1, OPRD1 (Homo sapiens, UniProt P41143); experiment: GPCR panel (control), Arrestin, CHO-K1; format: cell-based; conditions: reference agonist
T1 construct: expressed in transfected cells; host or cells: CHO-K1
T1 sequence (P41143 whole entry): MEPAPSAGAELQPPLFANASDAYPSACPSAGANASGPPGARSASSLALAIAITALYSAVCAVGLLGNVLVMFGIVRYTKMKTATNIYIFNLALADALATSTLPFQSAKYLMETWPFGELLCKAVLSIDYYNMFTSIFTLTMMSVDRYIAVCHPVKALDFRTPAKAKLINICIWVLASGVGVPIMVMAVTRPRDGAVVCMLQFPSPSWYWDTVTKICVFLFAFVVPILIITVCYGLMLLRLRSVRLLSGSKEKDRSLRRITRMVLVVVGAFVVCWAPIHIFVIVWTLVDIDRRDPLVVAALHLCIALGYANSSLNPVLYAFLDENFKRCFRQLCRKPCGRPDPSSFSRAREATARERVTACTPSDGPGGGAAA

CXCR5 = experiment: GPCR panel (control), Arrestin, CHO-K1; format: cell-based, human; conditions: reference agonist
P2RY12 = experiment: GPCR panel (control), Arrestin, CHO-K1; format: cell-based, human; conditions: reference agonist
ADORA3 = experiment: GPCR panel (control), Arrestin, CHO-K1; format: cell-based, human; conditions: reference agonist
CCR1 = experiment: GPCR panel (control), Arrestin, CHO; format: cell-based, human; conditions: reference agonist
CCR6 = experiment: GPCR panel (control), Arrestin, CHO-K1; format: cell-based, human; conditions: reference agonist
CCR2 = experiment: GPCR panel (control), Arrestin, CHO-K1; format: cell-based, human; conditions: reference agonist
CCR5 = experiment: GPCR panel (control), Arrestin, CHO-K1; format: cell-based, human; conditions: reference agonist
P2RY11 = experiment: GPCR panel (control), Arrestin, CHO-K1; format: cell-based, human; conditions: reference agonist
KISS1R = target: T2, KISS1R (Homo sapiens, UniProt Q969F8); experiment: GPCR panel (control), Arrestin, U2OS; format: cell-based
T2 construct: expressed in transfected cells; host or cells: U2OS
T2 sequence (Q969F8 whole entry): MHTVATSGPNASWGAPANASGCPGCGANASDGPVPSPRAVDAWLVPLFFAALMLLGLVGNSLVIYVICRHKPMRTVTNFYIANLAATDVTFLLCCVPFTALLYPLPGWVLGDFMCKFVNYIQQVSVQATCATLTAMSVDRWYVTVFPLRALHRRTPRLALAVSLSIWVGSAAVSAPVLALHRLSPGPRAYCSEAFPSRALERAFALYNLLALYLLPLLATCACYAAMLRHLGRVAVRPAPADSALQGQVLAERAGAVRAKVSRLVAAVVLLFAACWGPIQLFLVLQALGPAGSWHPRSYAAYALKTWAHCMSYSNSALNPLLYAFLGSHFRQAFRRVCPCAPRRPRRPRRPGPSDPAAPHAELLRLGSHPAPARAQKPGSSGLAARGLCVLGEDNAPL

PTGIR = PTGIR (Homo sapiens, UniProt P43119); experiment: GPCR panel (control), Arrestin, CHO-K1; format: cell-based; conditions: reference agonist
Sequence of PTGIR (P43119 1-383): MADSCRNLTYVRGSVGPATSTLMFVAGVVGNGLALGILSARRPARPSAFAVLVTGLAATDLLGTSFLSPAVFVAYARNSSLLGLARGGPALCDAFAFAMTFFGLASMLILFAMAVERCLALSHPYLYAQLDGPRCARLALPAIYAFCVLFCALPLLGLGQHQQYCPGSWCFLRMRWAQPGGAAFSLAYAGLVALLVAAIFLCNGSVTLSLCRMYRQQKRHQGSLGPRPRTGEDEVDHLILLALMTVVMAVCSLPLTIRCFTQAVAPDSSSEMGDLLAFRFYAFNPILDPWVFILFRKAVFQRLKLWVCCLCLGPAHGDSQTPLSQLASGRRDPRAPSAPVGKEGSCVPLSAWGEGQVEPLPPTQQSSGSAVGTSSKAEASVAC

TBXA2R = experiment: GPCR panel (control), Arrestin, U2OS; format: cell-based, human; conditions: reference agonist
CXCR1 = experiment: GPCR panel (control), Arrestin, U2OS; format: cell-based, human; conditions: reference agonist
CXCR2 = experiment: GPCR panel (control), Arrestin, HEK-293; format: cell-based, human; conditions: reference agonist, CXCR2, HEK-293, Arrestin
CCR3 = experiment: GPCR panel (control), Arrestin, CHO-K1; format: cell-based, human; conditions: reference agonist
CCR7 = experiment: GPCR panel (control), Arrestin, CHO-K1; format: cell-based, human; conditions: reference agonist
XCR1 = experiment: GPCR panel screening, cAMP assay, XCR1; format: cell-based, human; conditions: reference agonist, XCR1, CHO
Description: The chemokine receptor XCR1, coupled to Gαi, was tested in cAMP assays.
Screening the GPCRs panels was performed by DiscoverX (Eurofins) using β-arrestin recruitment assays unless otherwise indicated (for details, see Supplementary Data 2). […]
chemokine receptors (CCR1, CCR2, CCR3, CCR4, CCR5, CCR6, CCR7, CCR8, CCR9, CCR10, CXCR1, CXCR2, CXCR3, CXCR4, CXCR5, CXCR6, and CX3CR1) versus their corresponding agonist at their determined EC80 (see Supplementary Data 2). CXCL14 was preincubated for 30 min, then the standard agonist for the investigated receptor was added, followed by another incubation for 90 min without washing step in between. The chemokine receptor XCR1, coupled to Gαi, was tested in cAMP assays. The readout was relative luminescence units (RLU). The percentage of inhibition was calculated using the following formula: % Inhibition = 100% x (1 - (mean RLU of CXCL14- mean RLU of vehicle control) / (mean RLU of EC80 control - mean RLU of vehicle control)). For further details see Supplementary Data 2.
(1 picture or pasted object on this page, not shown here)

PROKR1 = experiment: GPCR panel (control), Arrestin, CHO-K1; format: cell-based, human; conditions: reference agonist
PROKR2 = experiment: GPCR panel (control), Arrestin, CHO-K1; format: cell-based, human; conditions: reference agonist
CCR4 = experiment: GPCR panel (control), Arrestin, CHO-K1; format: cell-based, human; conditions: reference agonist
CCR8 = experiment: GPCR panel (control), Arrestin, CHO-K1; format: cell-based, human; conditions: reference agonist
CX3CR1 = experiment: GPCR panel (control), Arrestin, CHO-K1; format: cell-based, human; conditions: reference agonist
C5AR1 = experiment: GPCR panel (control), Arrestin, CHO-K1; format: cell-based, human; conditions: reference agonist
C5LR2 = experiment: GPCR panel (control), Arrestin, CHO-K1; format: cell-based, human; conditions: reference agonist
CCR10 = experiment: GPCR panel (control), Arrestin, U2OS; format: cell-based, human; conditions: reference agonist

Sequence of CRTH2 (Q9Y5Y4 whole entry): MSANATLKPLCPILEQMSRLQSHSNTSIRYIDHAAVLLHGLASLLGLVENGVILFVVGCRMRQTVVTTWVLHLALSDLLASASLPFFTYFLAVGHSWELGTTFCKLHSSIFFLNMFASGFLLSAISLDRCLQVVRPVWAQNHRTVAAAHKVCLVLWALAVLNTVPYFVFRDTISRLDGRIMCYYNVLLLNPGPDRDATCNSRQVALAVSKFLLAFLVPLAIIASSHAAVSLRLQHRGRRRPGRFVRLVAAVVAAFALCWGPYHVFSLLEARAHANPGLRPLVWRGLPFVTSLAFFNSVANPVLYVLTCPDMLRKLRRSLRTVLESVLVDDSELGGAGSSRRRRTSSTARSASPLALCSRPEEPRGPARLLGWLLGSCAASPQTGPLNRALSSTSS

## COc1ccc2[nH]c(I)c(CCNC(C)=O)c2c1 [2-Iodomelatonin]
MTNR1A
  EC50: 0.085 nM
  EC80: 0.0051 µM
MTNR1B
  EC50: 0.084 nM
  EC80: 0.0042 µM

## CCCCC[C@H](O)/C=C/[C@H]1C(=O)C[C@H](O)[C@@H]1C/C=C\CCCC(=O)O [Prostaglandin D2]
CRTH2
  EC50: 0.021 µM
  EC80: 1.2 µM

## CXCL11
CXCR3
  EC50: 0.0093 µM
  EC80: 0.28 µM

## O=c1ccn([C@@H]2O[C@H](COP(=O)(O)OP(=O)(O)OP(=O)(O)O)[C@@H](O)[C@H]2O)c(=O)[nH]1 [UTP]
P2RY2
  EC50: 0.42 µM
  EC80: 12 µM
P2RY4
  EC50: 0.11 µM
  EC80: 3.3 µM
P2RY6
  EC50: 0.1 µM
  EC80: 2.7 µM

## CCCCCCCCCCCCCCCCOC[C@H](COP(=O)([O-])OCC[N+](C)(C)C)OC(C)=O [PAF]
PTAFR
  EC50: 0.0063 µM
  EC80: 0.32 µM

## CSCC[C@H](NC(=O)[C@H](CC(C)C)NC(=O)[C@H](Cc1cnc[nH]1)NC(=O)[C@H](Cc1ccccc1)NC(=O)[C@@H](CCSC)NC(=O)[C@@H](N)Cc1ccc(O)cc1)C(=O)N[C@@H](CC(=O)O)C(N)=O [Deltorphin A] (H-Y[dM]FHLMD-NH2)
OPRD1
  EC50: 0.0023 µM
  EC80: 0.054 µM

## CXCL13
CXCR5
  EC50: 0.024 µM
  EC80: 1.2 µM

## CSc1nc(N)c2ncn([C@@H]3O[C@H](COP(=O)(O)OP(=O)(O)O)[C@@H](O)[C@H]3O)c2n1 [2-methylthio-ADP]
P2RY12
  EC50: 0.0026 µM
  EC80: 0.058 µM

## CCL3/MIP1a
CCR1
  EC50: 0.0081 µM
  EC80: 0.57 µM

## CCL20
CCR6
  EC50: 0.0062 µM
  EC80: 0.71 µM

## CCL2
CCR2
  EC50: 0.0031 µM
  EC80: 0.2 µM

## CCL3
CCR5
  EC50: 0.0072 µM
  EC80: 0.31 µM

## Nc1ncnc2c1ncn2[C@@H]1O[C@H](COP(=O)(O)OP(=O)(O)OP(=O)(O)O)[C@@H](O)[C@H]1O [ATP]
P2RY11
  EC50: 350 µM
  EC80: 13000 µM

## CC(C)C[C@H](NC(=O)CNC(=O)[C@H](Cc1ccccc1)NC(=O)[C@H](CO)NC(=O)[C@H](CC(N)=O)NC(=O)[C@H](Cc1c[nH]c2ccccc12)NC(=O)[C@H](CC(N)=O)NC(=O)[C@@H](N)Cc1ccc(O)cc1)C(=O)N[C@@H](CCCN=C(N)N)C(=O)N[C@@H](Cc1ccccc1)C(N)=O [Kisspeptin-10]
KISS1R
  EC50: 0.063 µM
KISS1R; reference agonist, KISS1R, U2OS, Arrestin
  EC80: 1.1 µM

## CC#CCC(C)[C@H](O)/C=C/[C@@H]1[C@H]2c3cccc(CCCC(=O)O)c3O[C@H]2C[C@H]1O (mixture of isomers) [Beraprost]
PTGIR
  EC50: 0.39 µM
  EC80: 18 µM

## O=C(O)CCC/C=C\C[C@@H]1[C@@H](/C=C/[C@@H](O)COc2ccc(I)cc2)[C@H]2CC[C@@H]1O2 [I-BOP]
TBXA2R
  EC50: 0.12 µM
  EC80: 2.4 µM

## Interleukin-8
CXCR1
  EC50: 0.0017 µM
  EC80: 0.3 µM
CXCR2
  EC50: 0.0011 µM
  EC80: 0.23 µM

## CCL13
CCR3
  EC50: 0.0088 µM
  EC80: 0.21 µM

## CCL19
CCR7
  EC50: 0.0095 µM
  EC80: 0.23 µM

B1: XCL1/Lymphotactin (protein, UniProt P47992 22-114, looked up)
Lymphotactin: VGSEVSDKRTCVSLTTQRLPVSRIKTYTITEGSLRAVIFITKRGLKVCADPQATWVRDVVRSMDRKSNTRNNMIQTKPTGTQQSTNTAVTLTG
XCR1
  EC50: 0.0088 µM
  EC80: 0.48 µM

B2: EG VEGF (protein, UniProt P58294 20-105, looked up)
Prokineticin-1: AVITGACERDVQCGAGTCCAISLWLRGLRMCTPLGREGEECHPGSHKVPFFRKRKHHTCPCLPNLLCSRFPDGRYRCSMDLKNINF
PROKR1
  EC50: 0.049 µM
  EC80: 2.4 µM
PROKR2
  EC50: 0.0051 µM
  EC80: 0.41 µM

B3: CCL22 (protein, UniProt O00626 25-93, looked up)
C-C motif chemokine 22: GPYGANMEDSVCCRDYVRYRLPLRVVKHFYWTSDSCPRPGVVLLTFRDKEICADPRVPWVKMILNKLSQ
CCR4
  EC50: 0.0024 µM
  EC80: 0.12 µM

B4: CCL1 (protein, UniProt P22362 24-96, looked up)
C-C motif chemokine 1: KSMQVPFSRCCFSFAEQEIPLRAILCYRNTSSICSNEGLIFKLKRGKEACALDTVGWVQRHRKMLRHCPSKRK
CCR8
  EC50: 0.04 µM
  EC80: 1.9 µM

B5: Fractalkine (protein, UniProt P78423 25-397, looked up)
Fractalkine: QHHGVTKCNITCSKMTSKIPVALLIHYQQNQASCGKRAIILETRQHRLFCADPKEQWVKDAMQHLDRQAAALTRNGGTFEKQIGEVKPRTTPAAGGMDESVVLEPEATGESSSLEPTPSSQEAQRALGTSPELPTGVTGSSGTRLPPTPKAQDGGPVGTELFRVPPVSTAATWQSSAPHQPGPSLWAEAKTSEAPSTQDPSTQASTASSPAPEENAPSEGQRVWGQGQSPRPENSLEREEMGPVPAHTDAFQDWGPGSMAHVSVVPVSSEGTPSREPVASGSWTPKAEEPIHATMDPQRLGVLITPVPDAQAATRRQAVGLLAFLGLLFCLGVAMFTYQSLQGCPRKMAGEMAEGLRYIPRSCGSNSYVLVPV
CX3CR1
  EC50: 0.00013 µM
  EC80: 0.015 µM

B6: Complement C5a (protein, UniProt P01031 678-751, looked up)
C5a anaphylatoxin: TLQKKIEEIAAKYKHSVVKKCCYDGACVNNDETCEQRAARISLGPRCIKAFTECCVVASQLRANISHKDMQLGR
modifications: C5a anaphylatoxin
C5AR1
  EC50: 0.0013 µM
  EC80: 0.071 µM
C5LR2
  EC50: 0.0022 µM
  EC80: 0.043 µM

B7: CCL27 (protein, UniProt Q9Y4X3 25-112, looked up)
C-C motif chemokine 27: FLLPPSTACCTQLYRKPLSDKLLRKVIQVELQEADGDCHLQAFVLHLAQRSICIHPQNPSLSQWFEHQERKLHGTLPKLNFGMLRKMG
CCR10
  EC50: 0.065 µM
  EC80: 1.7 µM

Reference: publication PMC10771525 (Communications Biology, 2024)
